How the values were obtained:
[1] = tested on: dystrophin; conditions: in vitro; cited from earlier work
[2] = tested on: dystrophin; conditions: patients, after 180 weeks of treatment with 30 or 50 mg/kg/week; cited from earlier work
[3] = tested on: Taiwanese SMA mouse model (Smn^−/− SMN2^Tg/−); assay: H and E muscle pathology (myofiber size, centrally nucleated fibers) in SMA mice; assay type: in vivo; conditions: 40 mg/kg at PD0
From the text: Atrophic musculature is a classical characteristic feature of SMA with diminished skeletal muscle fiber size. To determine the treatment effects on muscle pathology, we assessed the physiology and architecture of the myofibers of two affected muscle groups− the quadriceps and intercostal muscles, as well as the sparingly affected diaphragm at PD7 and PD30 [79,80]. We quantified the cross-sectional area (CSA), the minimal feret's diameter and centrally nucleated fibers for at least 500 myofibers per muscle for each treatment using hematoxylin & eosin (H & E) staining at PD7 and PD30 (FIG. 12a, b, FIGS. 19 and 20).
7 μm cryosections of the quadricep muscle, diaphragm and intercostal muscle were stained with Meyer's H&E reagents (Electron Microscopy Reagents). For the centrally nucleated fibers and myofiber size, 500-800 were randomly selected per muscle per treatment. The cross-sectional area and minimal Feter's diameter were quantified using Image J. All H and E analyses were performed in a blinded fashion.

[4] = tested on: Taiwanese SMA mouse model (Smn^−/− SMN2^Tg/−); assay: Righting reflex test; assay type: in vivo; conditions: 40 mg/kg at PD0; mice that survived beyond PD12
Description: This spontaneous ability of the mice to right themselves up was tested from P2 until the weaning stage P20. The neonates were placed on their backs and the time taken to reposition and place all four paws on the ground was noted. The recording time was a maximum of 60 s. Each neonate underwent three trials, with a resting period of at least 10 minutes between trials. The data is expressed as the mean time to complete the righting reflex test ±SEM.

[5] = tested on: Taiwanese SMA mouse model (Smn^−/− SMN2^Tg/−); assay: Whole-body plethysmographic recordings at PD7; assay type: in vivo, mice; conditions: 40 mg/kg at PD0
Description: Measurements were performed in whole body, cylindrical transparent plexiglass plethysmographs that had one inflow and two outflow ports for the continuous delivery of fresh room air and removal of expired carbon dioxide. The plethysmograph of volumes were 10 ml (inner diameter: 1.9 cm, length: 3.5 cm for P7 mice with body weight less than 2.5 g), 30 ml (inner diameter: 2.6 cm, length: 5.6 cm for P7 mice with body weight more than 2.5 g) and 80 ml (inner diameter: 3.8 cm, length: 7 cm for P30) for measures of respiratory parameters with a flow rate of 15, 45, 120 ml/min, respectively. The gas was mixed with gas mixer (GSM-3, CWE InC, USA), delivered from compressed pure oxygen and pure nitrogen cannisters, being monitored using 0-200 ml/min gas regulators (Porter Instrument Company, USA).
Hypoxic challenge (11% of oxygen for 5 min) was performed with continuous monitoring of plethysmographic recordings without physical handling of the animal by switching inflow gas from normoxia (21% of oxygen, balanced by nitrogen) to hypoxia (11% of oxygen, balanced by nitrogen). […] For P30, the plethysmograph was recorded at room temperature of around 22° C. Pressure changes were detected with a pressure transducer (model DP 103; Validyne, USA), signal conditioner (CD-15; Validyne), recorded with data acquisition software (Axoscope) via analog-digital board (Digidata 1322A). […]

[6] = tested on: Taiwanese SMA mouse model (Smn^−/− SMN2^Tg/−); assay: Survival of severe SMA mice after subcutaneous injection at PD0; assay type: in vivo
Description: To examine whether DG9 peptide can increase the efficacy of PMO, DGS peptide was conjugated to an 18-mer PMO with a sequence identical to nusinersen. The DG9-conjugated PMO and unconjugated-PMO and 2′-O-methoxyethyl-RNA (MOE) were injected into SMA model mice.
Mice were subcutanteously injected with the AOs or saline (NT) administered at postnatal day 0 (PD0) at two different doses-40 mg/kg or 80 mg/kg. The survival was recorded until a humane endpoint was reached. For the 40 mg/kg doses, the median survival was 12 d (unconjugated-PMO), 15.5 d (MOE), and increased to 58 d for DG9-PMO treatment (FIG. 9a). The median survival incremented to 57 d (unconjugated-PMO), 121 d (DG9-PMO) and 64 d (MOE) for the higher dose of 80 mg/kg (FIG. 9a).
All animal experiments were conducted in University of Alberta and approved by the Animal Care and Use Committee, University of Alberta Research Ethics Office. SMA transgenic mice (JAX stock #005058 FVB.Cg-Tg(SMN2)2HungSmn1^tm1Hung/J (Smn^−/−; SMN2^Tg/Tg), also known as the Taiwanese mice) were purchased from Jackson Laboratory (Bar Harbor, ME, USA). Heterozygous mice for Smn1 (Smn1^+/−; SMN2^−/−) were crossed with mice homozygous for Smn1 Smn^−/−; SMN2^Tg/Tg to obtain the SMA mice (Smn^−/−; SMN2^Tg/−) or the heterozygous healthy control (Smn1^+/−; SMN2^Tg/−). The SMA mice display a severe overt phenotype similar to SMA type I patients. […]

[7] = tested on: Taiwanese SMA mouse model (Smn^−/− SMN2^Tg/−); assay: Neuromuscular junction (NMJ) staining at PD30; assay type: in vivo, mice; conditions: 40 mg/kg at PD0
Description: NMJ staining was carried out as previously described. Briefly, the quadricep and the intercostal muscle were fixed in 4% paraformaldehyde (PFA) for 2 hours. The muscles were washed quicky with PBS and blocked with 5% goat serum and 2% Triton-X in PBS for 1 hour at RT. This was followed by an overnight incubation at 4 with the primary mouse monoclonal antibodies anti-neurofilament 2H3 (1:100) and anti-synaptophysin (1:500) (DSHB, Iowa). Subsequently, the muscles were incubated in the dark with Alexafluor 488-goat anti-mouse IgG1 (1:1000) (Life Technologies) and Alexafluor 594-bungarotoxin (1:5000) (ThermoFisher Scientific). At least 300 NMJs were z-stacked and visualized for the analysis of denervation and cross-sectional area using a confocal microscope (Zeiss LSM 710) and Zeiss Zen software. The synaptic area was quantified using image J. All analyses were performed in a blinded fashion.

Ex51_Ac0: exon 51-skipping PMO, GTGTCACCAGAGTAACAGTCTGAGTAGGAG (all phosphorodiamidate morpholino (PMO); DG9 cell-penetrating peptide conjugated at 3' end in DG9-PMO)
effectiveness in restoring dystrophin production relative to eteplirsen [1]: up to 7 times

eteplirsen
dystrophin of normal levels [2]: 0.93%

unconjugated-PMO: Example 2: 18-mer PMO targeting ISS-N1 intron 7 (5′-TCACTTTCATAATGCTGG-3′), sequence identical to nusinersen (all phosphorodiamidate morpholino (PMO); unconjugated)
quadriceps myofiber size ([3]; PD7): significantly smaller than those of DG9-PMO
myofiber size and percent of central nuclei ([3]; PD30, all three tissue types): significantly smaller myofibers and a higher percent of central nuclei compared to DG9-PMO
time to right themselves on their paws [4]: still took longer than DG9-PMO mice
respiratory parameters (fR, VE, VT) ([5]; PD7, hypoxic environment (11% O2), relative to normoxia): slow, weak, and irregular breathing when compared to the Hets
respiratory phenotype ([5]; PD7, normoxic conditions (21% O2)): Half of the unconjugated-PMO mice (n=14) exhibited parameters as seen in NT mice
median survival ([6]; 40 mg/kg subcutaneous at PD0): 12 days
median survival ([6]; 80 mg/kg subcutaneous at PD0): 57 days
NMJ architecture [7]: smaller endplates and collapsed vesicles
full innervation of NMJs ([7]; quadriceps and intercostal muscles): 40-50%

Source: patent publication US20250114464A1, “PRE-MRNA SLICE MODULATING PEPTIDE-CONJUGATED ANTISENSE THERAPEUTICS FOR THE TREATMENT OF DISEASES” (The Governors of the University of Alberta, priority 2022, published 2025)
